Like-named read-outs stand apart in the source and are kept apart here.

For one series, the system named is human rho protein. The experiment in a line: Nucleotide exchange and GTP hydrolysis of rho measured with IDCC-NDPK˜P fluorescence. Type of series: biochemical. To be noted: 2 μM Rho.GDP, 10 μM GTP, 30° C., pH 7.6. How it is done:
The rate of nucleotide exchange from a small G protein, rho (which also has GTPase activity), was determined in solution. The rate of hydrolysis was also obtained indirectly.
Human rho protein was prepared in a form containing tightly-bound GDP. In the presence of excess added GTP, nucleotide exchange occurs such that GDP is released into free solution where it can be measured according to the invention. Once GTP is bound to rho, its hydrolysis is slowly catalysed by the protein at a steady-state rate. This creates more GDP, which is measured once it is released.
Fluorescence emission was recorded for a 200 μl solution containing 20 mM Tris/HCl, pH 7.6, 1 mM MgCl2, 100 mM (NH4)2SO4, 10 μM GTP, and 2 μM IDCC-NDPK˜P. The reaction was started at t=0 by adding 2 μM Rho.GDP. Excitation was at 440 nm with the emission monochromator set to 475 nm. The temperature was 30° C. The data were normalised using the fluorescence change for 1 μM GDP obtained from a titration of IDCC-NDPK˜P with different GTP/GDP ratios. […] The exponential “burst” represents the exchange of GDP bound to rho for GTP. The linear phase represents steady state: exchange of further GTP onto rho is limited by hydrolysis to GDP.

The conditions of series [1]: in ethanol, known value; cited from earlier work.
Series [2] can be described thus: Fluorescence quantum yield determination. Type of series: physicochemical. To be noted: in buffer. Here is the method: There is a shift of 6 nm in the absorbance maxima of the fluorophore between IDCC-NDPK and IDCC-NDPK˜P, but only 2 nm in the emission maxima. The fluorescence quantum yields for the two forms of the labelled enzyme were determined using as reference the known value of 0.83 for Coumarin 314 in ethanol.

As for “Rho.GDP: human rho protein, a small G protein with GTPase activity, prepared with tightly-bound GDP”, in the series with human rho protein, the “rate constant of exponential phase (exchange of bound GDP for GTP)” value turned out to be 0.196 min⁻¹ and the “slope of linear phase (steady state GTP hydrolysis)” value was 41.2 nM GDP min^−1.

As for `CCOC(=O)c1cc2cc3c4c(c2oc1=O)CCCN4CCC3` [Coumarin 314], the fluorescence quantum yield was 0.83 in series [1] and 0.52 in series [2].

Values taken from US7297506B2, “Assay for nucleotide triphosphate using a modified nucleoside diphosphate kinase comprising a fluorescent label” (Medical Research Council, priority 1999, dated 2007).
